Test results reported in patent US7998972B2, “1H-imidazo[4,5-c]quinoline derivatives in the treatment of protein kinase dependent diseases” (Novartis AG, priority 2002, dated 2011).

Tests used:
Format in all cases: biochemical
[1] = molecular target: T1, Abl (Homo sapiens, UniProt P00519); experiment: Inhibition of c-Abl protein-tyrosine kinase (filter binding assay); settings: His-tagged c-Abl kinase domain, Poly-AEKY, 5 μM ATP; read-out: IC50 range class, inhibition of Abl in vitro
T1 construct: The His-tagged kinase domain of c-Abl is cloned and expressed in the baculovirus/Sf9 system; His; made in house; host or cells: baculovirus / Sf9 cells
T1 sequence (P00519 242-493 limits assumed): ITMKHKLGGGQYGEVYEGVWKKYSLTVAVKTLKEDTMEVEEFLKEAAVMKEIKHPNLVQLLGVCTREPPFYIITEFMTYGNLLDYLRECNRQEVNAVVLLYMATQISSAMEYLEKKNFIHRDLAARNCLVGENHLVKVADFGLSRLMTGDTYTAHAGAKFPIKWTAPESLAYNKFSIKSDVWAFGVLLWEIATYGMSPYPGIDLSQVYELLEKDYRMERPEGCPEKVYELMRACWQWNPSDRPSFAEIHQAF
Procedure: An in vitro enzyme assay is performed in 96-well plates as a filter binding assay as described by Geissler et al. in Cancer Res. 1992; 52:4492-4498, with the following modifications. The His-tagged kinase domain of c-Abl is cloned and expressed in the baculovirus/Sf9 system as described by Bhat et al. in J. Biol. Chem. 1997; 272:16170-16175. A protein of 37 kD (c-Abl kinase) is purified by a two-step procedure over a Cobalt metal chelate column followed by an anion exchange column with a yield of 1-2 mg/L of Sf9 cells (Bhat et al., reference cited). The purity of the c-Abl kinase is >90% as judged by SDS-PAGE after Coomassie blue staining. The assay contains (total volume of 30 μL): c-Abl kinase (50 ng), 20 mM Tris.HCl, pH 7.5, 10 mM MgCl2, 10 μM Na3VO4, 1 mM DTT and 0.06 μCi/assay [γ^33 P]-ATP (5 μM ATP) using 30 μg/mL poly-Ala,Glu,Lys,Tyr-6:2:5:1 (Poly-AEKY, Sigma P1152) in the presence of 1% DMSO. Reactions are terminated by adding 10 μL of 250 mM EDTA and 30 μL of the reaction mixture is transferred on to Immobilon-PVDF membrane (Millipore, Bedford, Mass., USA) previously soaked for 5 min with methanol, rinsed with water, then soaked for 5 min with 0.5% H3PO4 and mounted on vacuum manifold with disconnected vacuum source. After spotting all samples, vacuum is connected and each well rinsed with 200 μL 0.5% H3PO4. Membranes are removed and washed on a shaker with 0.5% H3PO4 (4 times) and once with ethanol. Membranes are counted after drying at ambient temperature, mounting in Packard TopCount 96-well frame, and addition of 10 μL/well of Microscint™ (Packard).

[2] = molecular target: T2, Kdr (Homo sapiens, UniProt P35968); experiment: Inhibition of KDR protein tyrosine kinase in vitro; settings: GST-fused KDR kinase domain, polyGluTyr(4:1), 8 μM ATP; read-out: IC50 range class, inhibition of Kdr in vitro
T2 construct: The kinase domain of KDR is expressed as GST-fusion protein using the baculovirus system; made in house
T2 sequence (P35968 834-1162 limits assumed): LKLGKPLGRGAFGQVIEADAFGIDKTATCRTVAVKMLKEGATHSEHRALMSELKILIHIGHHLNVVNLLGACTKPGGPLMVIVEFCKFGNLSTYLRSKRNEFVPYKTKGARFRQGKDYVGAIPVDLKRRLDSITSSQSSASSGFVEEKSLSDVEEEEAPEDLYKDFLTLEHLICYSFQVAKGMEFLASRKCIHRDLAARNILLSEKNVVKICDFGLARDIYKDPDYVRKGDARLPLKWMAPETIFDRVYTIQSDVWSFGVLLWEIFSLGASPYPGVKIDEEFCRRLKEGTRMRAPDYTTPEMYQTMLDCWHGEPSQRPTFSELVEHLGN
Procedure: Inhibition of the enzyme activity of KDR protein tyrosine kinase can be determined as follows: The kinase domain of KDR is expressed as GST-fusion protein using the baculovirus system. The in vitro kinase assay is performed in 96-well plates using the recombinant GST-fused kinase domains expressed in baculovirus and purified over glutathione-Sepharose. ^33P-ATP (Amersham) is used as the phosphate donor, and the polyGluTyr(4:1) peptide (Sigma) is used as acceptor. The buffer is composed as follows: 29 mM Tris-HCl, pH 7.5; 10 mM MgCl2, 1 μM MnCl2, 8 μM ATP, 0.2 μCi ^33P-ATP, 8 μg/ml polyGluTyr. The reaction os carried out in a volume of 30 μl for 10 min at room temperature in the presence of either 1% DMSO or the test compound of formula I at the required concentration in 1% DMSO […]. The reaction is stopped by the addition of ethylenediaminetetraacetic acid to a final concentration of 60 mM. The assay mixture is then transferred onto a Immobilon-PVF membrane (Millipore), which is subsequently washed four times with 0.05% H3PO4 and once with ethanol. After drying, […] of Microscint Cocktail (Packard) is added and scintillation counting is performed (Hewlett-Packard Top Count). IC50 values are calculated by linear regression analysis of the percentage inhibition of each test compound in duplicate, at three concentrations (usually 0.01, 0.1 and 1 μM or 0.1, 1 and 10 μM).

[3] = molecular target: PKB/Akt (Homo sapiens, UniProt P31749); experiment: Inhibition of PKB/Akt in vitro; settings: PDK1-activated GST-PKB, LRRPRTRSFS peptide, 20 μM ATP; read-out: IC50 range class, inhibition of PKB/Akt in vitro
Sequence of PKB/Akt (P31749 whole entry): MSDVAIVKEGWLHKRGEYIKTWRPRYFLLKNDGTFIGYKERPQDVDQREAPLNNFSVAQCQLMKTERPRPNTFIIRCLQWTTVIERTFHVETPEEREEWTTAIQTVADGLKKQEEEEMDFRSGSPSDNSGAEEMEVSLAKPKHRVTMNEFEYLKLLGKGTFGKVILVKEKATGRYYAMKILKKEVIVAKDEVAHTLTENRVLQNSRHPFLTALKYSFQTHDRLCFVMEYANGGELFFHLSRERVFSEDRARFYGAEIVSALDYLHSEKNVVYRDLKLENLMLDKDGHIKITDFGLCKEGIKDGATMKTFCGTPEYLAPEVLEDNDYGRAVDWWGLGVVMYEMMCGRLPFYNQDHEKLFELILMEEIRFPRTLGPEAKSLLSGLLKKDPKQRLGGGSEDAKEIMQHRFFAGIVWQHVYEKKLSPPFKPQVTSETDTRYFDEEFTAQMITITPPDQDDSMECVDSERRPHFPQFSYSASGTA
Procedure: The activity as inhibitor of PKB can be determined as follows:
To fully activate PKB, the enzyme is exposed to catalytic amounts of PDK1. GST-PKB (100 ng, Specific Activity: 0.2 nmoles/mg/mins) is incubated for 30 min at room temperature (rt) with purified recombinant GST-PDK1 (1 ng, SA: 2 nmoles/min/mg). The activation is performed as follows: 0.1 μg of GST-PDK1 (0.05 μl) and 10 μg of GST-PKB (0.45 μl) are mixed in a total volume of 0.75 μl containing 15 μM ATP, 3 mM MgCl2, 20 mM Hepes (pH 7.6) for 30 mins at rt. The reaction is subsequently stopped by adding 0.25 μl containing 30% glycerol (w/w) and 0.06 μl of 500 mM EDTA. 100-500 ng (0.01-0.05 μl) activated GST-PKB is incubated in a final volume of 30 μl with 10 μM of the LRRPRTRSFS peptide, 10 mM Mg-acetate, 50 mM MOPS (PH 7.5), 1 mM DTT and 300 μg/ml BSA, 20 μM ATP (0.1 μCi gamma-^33P-ATP). The reaction is carried out for 30 min at rt in the presence of either 1% DMSO or the text compound of the formula I at the required concentration in 1% DMSO. The reaction is terminated by the addition of 20 μl 125 mM EDTA. 30 ill of each sample is spotted onto P81 Whatman and the paper squares processed as described in Ferrari, S. and Thomas, G. (1991) Meth. Enzymol. 200, 159-169. IC50 values are calculated by linear regression analysis of the percentage inhibition of each compound in duplicate.

Compound | IC50 [1] [nM] | IC50 [2] [nM] | IC50 [3] [nM]
OCc1cccc(-n2cnc3cnc4ccc(-c5ccccc5)cc4c32)c1 [Example 62, [3-(8-Phenyl-imidazo[4,5-c]quinolin-1-yl)-phenyl]-methanol] | ≤ 500 | ≤ 500 | 
Nc1cccc(-n2cnc3cnc4ccc(-c5ccccc5)cc4c32)c1 [Example 58, 3-(8-Phenyl-imidazo[4,5-c]quinolin-1-yl)-phenylamine] | ≤ 500 | ≤ 500 | 
COc1ccccc1-c1ccc2ncc3ncn(-c4ccccc4Cl)c3c2c1 [Example 142, 1-(2-Chloro-phenyl)-8-(2-methoxy-phenyl)-1H-imidazo[4,5-c]quinoline] | ≤ 500 |  | 
Fc1ccccc1-n1cnc2cnc3ccc(-c4ccccc4)cc3c21 [Example 54, 1-(2-Fluoro-phenyl)-8-phenyl-1H-imidazo[4,5-c]quinoline] |  |  | 1000 to 2000
COc1ccc(-c2ccc3ncc4ncn(-c5ccccc5Cl)c4c3c2)cc1 [Example 137, 1-(2-Chloro-phenyl)-8-(4-methoxy-phenyl)-1H-imidazo[4,5-c]quinoline] |  |  | 1000 to 2000
COc1cccc(-c2ccc3ncc4ncn(-c5ccccc5Cl)c4c3c2)c1 [Example 140, 1-(2-Chloro-phenyl)-8-(3-methoxy-phenyl)-1H-imidazo[4,5-c]quinoline] | ≤ 500 | ≤ 500 | 
